The Deep4Chem optical property database

Assay: solvent given as SMILES

SMILES: Cc1cc(C)n2c1C=C1c3ccccc3C(c3cccn3C)=[N+]1[B-]2(F)F
- emission maximum (in C1CCOC1): 608 nm
- emission maximum (in CC#N): 606 nm
- emission maximum (in CCCCCC): 605 nm
- emission maximum (in CO): 605 nm
- emission maximum (in Cc1ccccc1): 613 nm
- emission maximum (in ClCCl): 611 nm

SMILES: CCCCC1(CCCC)c2cc(-c3ccc(C=C4C(=O)c5ccccc5C4=O)cc3)ccc2-c2ccc(-c3ccc(C=C4C(=O)c5ccccc5C4=O)cc3)cc21
- emission maximum (in C1CCOC1): 532 nm
- emission maximum (in CC(C)=O): 564 nm
- emission maximum (in CCCCCC): 465 nm
- emission maximum (in CS(C)=O): 596 nm
- emission maximum (in Cc1ccccc1): 492 nm
- emission maximum (in ClC(Cl)Cl): 527 nm

SMILES: COc1ccccc1-c1cc2c(o1)=CC1=Cc3cc4oc(-c5ccccc5OC)cc4n3[B-](F)(F)[N+]=21
- emission maximum (in ClC(Cl)Cl): 680 nm

SMILES: CC(C)(C)C1CCC(=CS/C=C/c2ccc(/C=C/SC=C3CCC(C(C)(C)C)CC3)cc2)CC1 (stereo not drawn)
- emission maximum (in ClCCl): 422 nm

SMILES: COc1ccc2c(c1)CCC1=C(C#Cc3ccc(Cl)cc3)O[B-](F)(F)[O+]=C12
- emission maximum (in ClCCl): 472 nm

SMILES: CCCCCCN(CCCCCC)c1ccc(C#Cc2ccc(C(F)(F)F)cc2)cc1
- emission maximum (in CO): 456 nm
- emission maximum (in ClCCl): 440 nm

SMILES: CCCCCCCCCCc1cc(-c2cc(CCCCCCCCCC)c(-c3cccs3)s2)sc1-c1cccs1
- emission maximum (in CCCCCCCCCCCCCC): 481 nm

SMILES: CCCCCCC1(CCCCCC)c2cc(-c3nc(-c4ccc5c(c4)C(CCCCCC)(CCCCCC)c4cc(N6c7ccccc7Sc7ccccc76)ccc4-5)nc(-c4ccc5c(c4)C(CCCCCC)(CCCCCC)c4cc(N6c7ccccc7Sc7ccccc76)ccc4-5)n3)ccc2-c2ccc(N3c4ccccc4Sc4ccccc43)cc21
- emission maximum (in C1CCOC1): 626 nm
- emission maximum (in CCCCCC): 462 nm
- emission maximum (in Cc1ccccc1): 529 nm
- emission maximum (in ClCCl): 650 nm

SMILES: N#Cc1c(-n2c3ccc(-c4ccccc4)cc3c3cc(-c4ccccc4)ccc32)c(-n2c3ccccc3c3ccccc32)c(-n2c3ccc(-c4ccccc4)cc3c3cc(-c4ccccc4)ccc32)c(-n2c3ccccc3c3ccccc32)c1-n1c2ccc(-c3ccccc3)cc2c2cc(-c3ccccc3)ccc21
- emission maximum (in Cc1ccccc1): 492 nm

SMILES: O=C(O)C1=CC(=C/C=[N+]2/c3cc(O)c(C[C@@H]4O[C@H](CO)[C@@H](O)C(O)[C@H]4O)cc3C[C@H]2C(=O)O)C=C(C(=O)O)N1 (stereo partly drawn)
- emission maximum (in CO): 588 nm
- emission maximum (in O): 620 nm
- emission maximum (in OCCO): 594 nm
- emission maximum (in [2H]O[2H]): 620 nm

SMILES: CCN1C(=O)C(C2C(=O)c3c4ccccc4cc4cc5ccccc5c2c34)C(=O)N(CC)C1=S (stereo not drawn)
- emission maximum (in C1CCOC1): 571 nm
- emission maximum (in CCCCCC): 544 nm
- emission maximum (in Cc1ccccc1): 564 nm
- emission maximum (in ClCCl): 582 nm

SMILES: CCCCCCCCCCCCN1C(=O)c2c(c3ccc4cc(-c5ccc(C=O)cc5)c(OC)cc4c3c3c2ccc2cc(-c4ccc(C=O)cc4)c(OC)cc23)C1=O
- emission maximum (in ClCCl): 523 nm

SMILES: O=C(N/N=C/c1ccccc1O)c1ccccc1
- emission maximum (in C1CCOC1): 306 nm
- emission maximum (in CC#N): 373 nm
- emission maximum (in CC(C)=O): 426 nm
- emission maximum (in CCO): 429 nm
- emission maximum (in CN(C)C=O): 458 nm
- emission maximum (in CS(C)=O): 552 nm
- emission maximum (in ClCCl): 392 nm

SMILES: CCCCCCOc1cc(N(CC)CC)ccc1/C=C(\C#N)c1ccc(/C=C/C(=C(C#N)C#N)c2ccc(N(c3ccccc3)c3ccccc3)cc2)s1
- emission maximum (in ClCCl): 750 nm

SMILES: COc1c(Br)c2cc(=O)oc3ccc4cccc1c4c32
- emission maximum (in CC1CCCO1): 487 nm

SMILES: Cc1ccc(N(c2ccccc2)c2ccc3ccc4c(N(c5ccccc5)c5ccc(C)cc5)ccc5ccc2c3c54)cc1
- emission maximum (in ClCCl): 484 nm

SMILES: Nc1cccc2ncccc12
- emission maximum (in CC#N): 480 nm
- emission maximum (in O): 534 nm

SMILES: CC(C)(C)c1ccc2c(c1)c1cc(C(C)(C)C)ccc1n2-c1ccc(C(=O)c2ccc(-n3c4ccc(C(C)(C)C)cc4c4cc(C(C)(C)C)ccc43)nc2)cn1
- emission maximum (in C1CCOC1): 496.58 nm
- emission maximum (in Cc1ccccc1): 465.19 nm
- emission maximum (in ClCCl): 532.91 nm

SMILES: CC(=O)c1c(N[C@H](C(=O)O)C(C)C)c2ccc(N(C)C)cc2oc1=O
- emission maximum (in ClCCl): 446 nm

SMILES: COc1ccc(C2=C(c3ccc(OC)cc3)C(C)(C)c3cc(-c4ccccc4)ccc32)cc1
- emission maximum (in C1CCCCC1): 417 nm

SMILES: O=c1oc2cc3ccccc3cc2nc1-c1ccccc1
- emission maximum (in CC#N): 538 nm
- emission maximum (in CCCCCC): 500 nm
- emission maximum (in CO): 548 nm
- emission maximum (in c1ccccc1): 514 nm

SMILES: O=c1[nH]c(=O)c2nc3ccccc3nc2[nH]1
- emission maximum (in CC#N): 432 nm

SMILES: COc1ccc2c(=O)c3c([nH]c2c1)-c1cc(Cl)ccc1NC3(C)C
- emission maximum (in C1CCOC1): 489 nm
- emission maximum (in CC#N): 512 nm
- emission maximum (in CCCCO): 525 nm
- emission maximum (in CCCO): 525 nm
- emission maximum (in CCO): 525 nm
- emission maximum (in CCOC(C)=O): 497 nm
- emission maximum (in CN(C)C=O): 509 nm
- emission maximum (in CO): 532 nm
- emission maximum (in CS(C)=O): 511 nm
- emission maximum (in Cc1ccccc1): 477 nm
- emission maximum (in ClC(Cl)(Cl)Cl): 469 nm
- emission maximum (in ClCCl): 491 nm
- emission maximum (in O): 555 nm
- emission maximum (in c1ccccc1): 478 nm
